According to US20040087512A1, “In-situ formation of CLA” (priority 1998, published 2004):

Columns and labels:
[1] = tested on: C57/B1/6J mice; experiment: Example 6: milk fat percentage of mice fed oleic acid isomer diets (creamatocrit); type: in vivo; details: for Milk fat on day 10 versus day 6 of lactation: isomer replaces about 25% of dietary fat, four days
From the text: (§1) C57/B1/6J mice fed a control diet (10 wt % fat) were switched to one of four isomer diets at day 6 of lactation after milk collection. Approximately 25% of the dietary fat (5 caloric %) during the treatment period was replaced with one of four specific isomers of oleic acid, either cis-9; cis-11; trans-9 or trams-11, other diet components were identical. The mice consumed these diets ad libitum for four days and were milked again on day 10 of lactation. Milk and fecal fatty acid composition was analyzed as fatty acid methyl esters by GC. Specific isomers were identified by relative retention times. Milk fat percentage was determined by the creamatocrit method and differences between day 6 and day 10 fat percentages were evaluated by a paired t-test.

[2] = tested on: C57/B1/6J mice; experiment: Example 6: milk and fecal fatty acid composition of mice fed oleic acid isomer diets (GC of FAME); type: in vivo; details: day 10, fed the isomer diet
From the text: as §1

[3] = tested on: cows; experiment: Milk fat levels in cows ingesting C18 trans 11 fats; details: in vivo

Row | Compound | Milk fat on day 10 versus day 6 of lactation [1] | Test isomer in milk [2] | Effect of ingestion on milk fat in the lactation products of mammals ([1]; mouse, in vivo) | Effect of ingestion on milk fat levels in cows [3]
1 | CCCCCCCC/C=C\CCCCCCCC(=O)O [cis-9] | identical fat values |  |  | 
2 | CCCCCC/C=C\CCCCCCCCCC(=O)O [cis-11] | numerically lower | 10 % of the fat |  | 
3 | CCCCCCCC/C=C/CCCCCCCC(=O)O [trans-9] | statistically lower | 5.8 % of the fat |  | 
4 | CCCCCC/C=C/CCCCCCCCCC(=O)O [trans-11, trans vaccinic acid] | numerically lower | 3 % of the fat | does not reduce milk fat | do not reduce milk fat levels
